pEC50, pKi: −log10 of the molar value. Like-named read-outs stand apart in the source and are kept apart here.
Columns and labels:
BRD4 (BDI_K57-E168) = target: T1, BRD4 (BDI_K57-E168) (Homo sapiens, UniProt O60885); assay: TR-FRET bromodomain binding assay, first bromodomain of BRD4; conditions: 100 nM probe
T1 construct: BD1: amino acids K57-E168; made in house
How it was run: (§1)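 His-tagged BRD4 bromodomain (8 nM) was incubated with Eu-anti-His antibody (1 nM) and an Alexa647-labelled BET-inhibitor probe (100 nM for BDI, 30 nM for BDII) in pH 6.0 phosphate buffer with 2% DMSO for 1 h at room temperature. TR-FRET ratio was read, IC50 fitted by 4-parameter logistic, then converted to Ki.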

BRD4 (BDII_E352-M457) = target: T2, BRD4 (BDII_E352-M457) (Homo sapiens, UniProt O60885); assay: TR-FRET bromodomain binding assay, second bromodomain of BRD4; conditions: 30 nM probe
T2 construct: protocol; made in house
How it was run: as §1

[1] = tested on: breast cancer cell line MX-1; assay: MX-1 cell line proliferation assay; type: cell-based; conditions: MX-1 cells, 3-day proliferation assay, Cell Titer Glo, read-out: Cellular proliferation: EC50
How it was run: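 EC50 comes from sigmoidal fits of Cell Titer Glo luminescence relative to DMSO controls, with assay MSR 2.1. Ten-point 3-fold dilutions (top 3 or 1 μM final) were added to MX-1 breast cancer cells after overnight adhesion. Cells were at 5000/well and proliferation ran 3 days.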

[2] = TR-FRET assay protocol G (compound 0.92 μM-15 pM)
[3] = TR-FRET assay protocol E (compound 9.19 μM-150 pM)

| Molecule | pKi (BRD4 (BDI_K57-E168); [2]) | pKi (BRD4 (BDII_E352-M457); [2]) | pEC50 [1] | pEC50 ([1]; Homo sapiens, MX1, 72 h) | pKi (BRD4 (BDI_K57-E168); [3]) | pKi (BRD4 (BDII_E352-M457); [3]) |
| --- | --- | --- | --- | --- | --- | --- |
| CNCCCC1c2c[nH]c3c(=O)n(C)cc(c23)-c2cc(CS(C)(=O)=O)ccc2N1c1ccc(F)cc1F (stereo not drawn) [Example 174, 4-(2,4-difluorophenyl)-10-methyl-3-(3-(methylamino)propyl)-7-((methylsulfonyl)methyl)-3,4-dihydro-1H-1,4,10-triazadibenzo[cd,f]azulen-11(10H)-one] | 7.90 | 8.82 | 6.62 | – | – | – |
| N-(4-(4-fluorophenyl)-10-methyl-11-oxo-3,4,10,11-tetrahydro-1H-1,4,5,10-tetraazadibenzo[cd,f]azulen-7-yl)ethanesulfonamide [Example 22] | 9.06 | 9.02 | 8.77 | – | – | – |
| COC(=O)CNC(=O)C1c2c[nH]c3c(=O)n(C)cc(c23)-c2cc(CS(C)(=O)=O)ccc2N1c1ccc(F)cc1F (stereo not drawn) [Example 155, methyl 2-(4-(2,4-difluorophenyl)-10-methyl-7-((methylsulfonyl)methyl)-11-oxo-3,4,10,11-tetrahydro-1H-1,4,10-triazadibenzo[cd,f]azulene-3-carboxamido)acetate] | 7.37 | 7.32 | 6.46 | – | – | – |
| Cn1cc2c3c(c[nH]c3c1=O)CN(C(=O)Nc1ccc(F)cc1F)c1ccc(CS(C)(=O)=O)cc1-2 [Example 68, N-(2,4-difluorophenyl)-10-methyl-7-((methylsulfonyl)methyl)-11-oxo-10,11-dihydro-1H-1,4,10-triazadibenzo[cd,f]azulene-4(3H)-carboxamide] | 7.90 | 8.37 | 7.40 | – | – | – |
| Cn1cc2c3c(c[nH]c3c1=O)CN(c1ncc(F)cn1)c1ccc(CS(C)(=O)=O)cc1-2 [Example 258, 4-(5-fluoropyrimidin-2-yl)-10-methyl-7-((methylsulfonyl)methyl)-3,4-dihydro-1H-1,4,10-triazadibenzo[cd,f]azulen-11(10H)-one] | 9.04 | 8.62 | 8.35 | – | – | – |
| [2H]C1([2H])c2c[nH]c3c(=O)n(C)cc(c23)-c2cc(CS(C)(=O)=O)ccc2N1c1ccc(F)cc1F [Example 218, 4-(2,4-difluorophenyl)-(3,3-^2H2)-10-methyl-7-((methylsulfonyl)methyl)-3,4-dihydro-1H-1,4,10-triazadibenzo[cd,f]azulen-11(10H)-one] | 9.19 | 9.19 | – | 8.87 | – | – |
| Cn1cc2c3c(c[nH]c3c1=O)C(CCNC(=O)OCc1ccccc1)N(c1ccc(F)cc1F)c1ccc(CS(C)(=O)=O)cc1-2 (racemic) [Example 229, benzyl (2-(4-(2,4-difluorophenyl)-10-methyl-7-((methylsulfonyl)methyl)-11-oxo-3,4,10,11-tetrahydro-1H-1,4,10-triazadibenzo[cd,f]azulen-3-yl)ethyl)carbamate] | 8.39 | 8.71 | 7.39 | – | – | – |
| Cn1cc2c3c(c[nH]c3c1=O)C(CCc1ccccc1)Nc1ccc(CS(C)(=O)=O)cc1-2 (stereo not drawn) [Example 18, 10-methyl-7-((methylsulfonyl)methyl)-3-phenethyl-3,4-dihydro-1H-1,4,10-triazadibenzo[cd,f]azulen-11(10H)-one] | – | – | 6.46 | – | 6.84 | 7.62 |
| Cn1cc2c3c(c[nH]c3c1=O)CN(CC(C)(C)CN1CCCC1)c1ccc(CS(C)(=O)=O)cc1-2 [Example 178] | 8.36 | 8.36 | 6.91 | – | – | – |
| Cn1cc2c3c(c[nH]c3c1=O)CN(CC1CC1)c1ncc(S(N)(=O)=O)cc1-2 [Example 10, 4-(cyclopropylmethyl)-10-methyl-11-oxo-3,4,10,11-tetrahydro-1H-1,4,5,10-tetraazadibenzo[cd,f]azulene-7-sulfonamide] | – | – | 7.22 | – | 8.16 | 8.22 |
| Cn1cc2c3c(c[nH]c3c1=O)C(CCC(O)CO)N(c1ccc(F)cc1F)c1ccc(CS(C)(=O)=O)cc1-2 (stereo not drawn) [Example 140, 4-(2,4-difluorophenyl)-3-(3,4-dihydroxybutyl)-10-methyl-7-((methylsulfonyl)methyl)-3,4-dihydro-1H-1,4,10-triazadibenzo[cd,f]azulen-11(10H)-one] | 8.00 | 8.65 | 6.03 | – | – | – |
| Cn1cc2c3c(c[nH]c3c1=O)C(CC(C)(C)C)N(c1ccc(F)cc1F)c1ccc(CS(C)(=O)=O)cc1-2 (stereo not drawn) [Example 219, 4-(2,4-difluorophenyl)-10-methyl-7-((methylsulfonyl)methyl)-3-neopentyl-3,4-dihydro-1H-1,4,10-triazadibenzo[cd,f]azulen-11(10H)-one] | 7.40 | 8.32 | 6.52 | – | – | – |
| Cn1cc2c3c(c[nH]c3c1=O)C(CNC(=O)CNC(=O)OC(C)(C)C)N(c1ccc(F)cc1F)c1ccc(CS(C)(=O)=O)cc1-2 (stereo not drawn) [Example 135, tert-butyl (2-(((4-(2,4-difluorophenyl)-10-methyl-7-((methylsulfonyl)methyl)-11-oxo-3,4,10,11-tetrahydro-1H-1,4,10-triazadibenzo[cd,f]azulen-3-yl)methyl)amino)-2-oxoethyl)carbamate] | 7.94 | 8.67 | 6.29 | – | – | – |
| Cn1cc2c3c(c[nH]c3c1=O)CN(c1ccc(F)cc1)c1ncc(F)cc1-2 [Example 32, 7-fluoro-4-(4-fluorophenyl)-10-methyl-3,4-dihydro-1H-1,4,5,10-tetraazadibenzo[cd,f]azulen-11(10H)-one] | 9.00 | 8.94 | 8.86 | – | – | – |
| 4-(1H-indazol-5-yl)-10-methyl-7-((methylsulfonyl)methyl)-3,4-dihydro-1H-1,4,10-triazadibenzo[cd,f]azulen-11(10H)-one [Example 246] | 8.36 | 8.44 | 7.93 | – | – | – |
| COC(=O)CCC(=O)N1Cc2c[nH]c3c(=O)n(C)cc(c23)-c2cc(CS(C)(=O)=O)ccc21 [Example 111, methyl 4-(10-methyl-7-((methylsulfonyl)methyl)-11-oxo-10,11-dihydro-1H-1,4,10-triazadibenzo[cd,f]azulen-4(3H)-yl)-4-oxobutanoate] | 8.11 | 8.48 | 7.08 | – | – | – |
| Cn1cc2c3c(c[nH]c3c1=O)C(c1ccc(C#N)cc1)N(c1ccc(F)cc1F)c1ccc(CS(C)(=O)=O)cc1-2 (racemic) [Example 235, 4-(4-(2,4-difluorophenyl)-10-methyl-7-((methylsulfonyl)methyl)-11-oxo-3,4,10,11-tetrahydro-1H-1,4,10-triazadibenzo[cd,f]azulen-3-yl)benzonitrile] | 7.79 | 8.19 | 6.79 | – | – | – |
| COC(=O)CCC1c2c[nH]c3c(=O)n(C)cc(c23)-c2cc(CS(C)(=O)=O)ccc2N1c1ccc(F)cc1F (stereo not drawn) [Example 82, methyl 3-(4-(2,4-difluorophenyl)-10-methyl-7-((methylsulfonyl)methyl)-11-oxo-3,4,10,11-tetrahydro-1H-1,4,10-triazadibenzo[cd,f]azulen-3-yl)propanoate] | 7.88 | 8.95 | 6.01 | – | – | – |
| Cn1cc2c3c(c[nH]c3c1=O)CN(C(=O)CC(C)(C)C)c1c(F)cc(F)cc1-2 [Example 169, 4-(3,3-dimethylbutanoyl)-5,7-difluoro-10-methyl-3,4-dihydro-1H-1,4,10-triazadibenzo[cd,f]azulen-11(10H)-one] | 7.91 | 8.33 | 7.16 | – | – | – |
| CCOC(=O)C1c2c[nH]c3c(=O)n(C)cc(c23)-c2cc(CS(C)(=O)=O)ccc2N1c1ccc(F)cc1 [Example 85, (S)-ethyl 4-(4-fluorophenyl)-10-methyl-7-((methylsulfonyl)methyl)-11-oxo-3,4,10,11-tetrahydro-1H-1,4,10-triazadibenzo[cd,f]azulene-3-carboxylate] | 7.97 | 7.95 | 7.31 | – | – | – |
| 4-(cyclopropylmethyl)-7-(isopropylsulfonyl)-10-methyl-3,4-dihydro-1H-1,4,10-triazadibenzo[cd,f]azulen-11(10H)-one [Example 1] | – | – | 7.57 | – | 7.49 | 7.98 |
| CCCNC(=O)N1Cc2c[nH]c3c(=O)n(C)cc(c23)-c2cc(CS(C)(=O)=O)ccc21 [Example 64, 10-methyl-7-((methylsulfonyl)methyl)-11-oxo-N-propyl-10,11-dihydro-1H-1,4,10-triazadibenzo[cd,f]azulene-4(3H)-carboxamide] | 8.57 | 8.55 | 7.07 | – | – | – |
| COC(=O)NC1CCC(N2Cc3c[nH]c4c(=O)n(C)cc(c34)-c3cc(CS(C)(=O)=O)ccc32)CC1 (stereo not drawn) [Example 224, methyl (4-(10-methyl-7-((methylsulfonyl)methyl)-11-oxo-10,11-dihydro-1H-1,4,10-triazadibenzo[cd,f]azulen-4(3H)-yl)cyclohexyl)carbamate] | 8.79 | 8.85 | 8.23 | – | – | – |
| Cn1cc2c3c(c[nH]c3c1=O)CN(c1ccc(Cl)cn1)c1ccc(CS(C)(=O)=O)cc1-2 [Example 245, 4-(5-chloropyridin-2-yl)-10-methyl-7-((methylsulfonyl)methyl)-3,4-dihydro-1H-1,4,10-triazadibenzo[cd,f]azulen-11(10H)-one] | 9.27 | 9.03 | 8.96 | – | – | – |
